Assay results as given in the NIST ThermoML archive (doi:10.1016/j.jct.2007.04.006).

What was measured:
[1] = mn = molality of the nth substance listed, in mol/kg; settings: 101 kPa, Liquid; for speed of sound: Sing-around technique in a fixed-path interferometer
[2] = 101.33 kPa, Liquid; for speed of sound: Sing-around technique in a fixed-path interferometer

[Br-].[Li+] [lithium bromide] + CC#N
[1], 298.15 K
Settings	mass density [kg/m3]	speed of sound [m/s]
m1 = 0.0209	778.135	1279.8
m1 = 0.0302	778.802	1280.1
m1 = 0.0403	779.512	1280.4
m1 = 0.0478	780.04	1280.6
m1 = 0.07	781.58	1281.3
m1 = 0.0799	782.247	1281.6
m1 = 0.0904	782.95	1281.9
m1 = 0.0986	783.518	1282.1
m1 = 0.1212	784.97	1282.8
m1 = 0.1506	786.812	1283.7
m1 = 0.1985	789.96	1285
m1 = 0.2498	793.354	1286.4
m1 = 0.2981	796.544	1287.7
m1 = 0.3974	803.094	1290.4
m1 = 0.5004	809.733	1293.1
m1 = 0.596	815.99	1295.6
m1 = 0.6972	822.595	1298.2

CC(C)=O [acetone]
[2], 298.15 K
Settings	mass density [kg/m3]	speed of sound [m/s]
–	784.233	1161.7

[Br-].[Li+] [lithium bromide] + CC(=O)N(C)C
[1], 323.15 K
Settings	mass density [kg/m3]	speed of sound [m/s]
m1 = 0.0322	915.827	1360.8
m1 = 0.0511	917.401	1362.5
m1 = 0.0638	918.452	1363.6
m1 = 0.0978	921.232	1366.4
m1 = 0.1188	922.89	1368.1
m1 = 0.1475	925.178	1370.3
m1 = 0.2003	929.349	1374.4
m1 = 0.2472	933.065	1378.2
m1 = 0.3042	937.515	1382.1
m1 = 0.3988	944.893	1389.2
m1 = 0.4886	951.867	1395.9
m1 = 0.601	960.362	1403.8
m1 = 0.7053	968.26	1411.4
m1 = 0.9019	982.963	1425.5
m1 = 1	990.219	1432.6
m1 = 1.189	1004.06	1446.1
m1 = 1.327	1013.96	1455.4

[Br-].[Li+] [lithium bromide] + CC(C)=O
[1], 298.15 K
Settings	mass density [kg/m3]	speed of sound [m/s]
m1 = 0.0301	784.377	1141.5
m1 = 0.0367	785.81	1142.3
m1 = 0.0486	786.228	1142.6
m1 = 0.0679	787.379	1143.1
m1 = 0.0776	787.748	1143.3
m1 = 0.0873	790.137	1144.5
m1 = 0.099	793.601	1146.2
m1 = 0.1177	797.348	1148.1
m1 = 0.1424	803.296	1150.9
m1 = 0.3719	806.427	1152.3
m1 = 0.4973	811.456	1154.5
m1 = 0.5928	818.719	1157.7
m1 = 0.7044	824.988	1160.3
m1 = 0.8	829.74	1162.3

CC(C)O [propan-2-ol]
[2], 298.15 K
Settings	mass density [kg/m3]	speed of sound [m/s]
–	780.804	1139.1

[Br-].[Li+] [lithium bromide] + CC(C)O
[1], 298.15 K
Settings	mass density [kg/m3]	speed of sound [m/s]
m1 = 0.0787	786.228	1142.6
m1 = 0.0957	787.379	1143.1
m1 = 0.1024	787.748	1143.3
m1 = 0.1387	790.137	1144.5
m1 = 0.1915	793.601	1146.2
m1 = 0.2503	797.348	1148.1
m1 = 0.3451	803.296	1150.9
m1 = 0.3951	806.427	1152.3
m1 = 0.4768	811.456	1154.5
m1 = 0.594	818.719	1157.7
m1 = 0.697	824.988	1160.3
m1 = 0.7757	829.74	1162.3
m1 = 0.9066	837.46	1165.4
m1 = 1.003	843.093	1167.7
m1 = 1.158	851.831	1170.5
m1 = 1.272	858.084	1173.5

[Br-].[Li+] [lithium bromide] + CO
[1], 298.15 K
Settings	mass density [kg/m3]	speed of sound [m/s]
m1 = 0.0425	789.48	1110.7
m1 = 0.0588	790.553	1111.3
m1 = 0.0714	791.384	1112
m1 = 0.0903	792.602	1112.8
m1 = 0.1168	794.333	1113.9
m1 = 0.1473	796.328	1115.1
m1 = 0.2089	800.289	1117.7
m1 = 0.2993	806.041	1121.1
m1 = 0.5035	818.761	1128.8
m1 = 0.7097	831.385	1136.2
m1 = 0.9875	848.253	1146.1
m1 = 1.163	858.424	1152
m1 = 1.464	876.582	1162.5
m1 = 1.97	905.481	1179.6
m1 = 2.45	933.222	1195.9
m1 = 3.489	989.847	1231.2

[Br-].[Li+] [lithium bromide] + CCO
[1], 298.15 K
Settings	mass density [kg/m3]	speed of sound [m/s]
m1 = 0.0789	790.432	1147
m1 = 0.0913	791.251	1147.4
m1 = 0.0985	791.782	1147.8
m1 = 0.1384	794.334	1149.2
m1 = 0.1556	795.465	1150.1
m1 = 0.2019	798.467	1151.6
m1 = 0.2348	800.584	1152.6
m1 = 0.2495	801.494	1153.2
m1 = 0.301	804.725	1154.7
m1 = 0.4002	810.966	1157.8
m1 = 0.4903	816.539	1160.5
m1 = 0.6076	823.796	1163.8
m1 = 0.7038	829.747	1166.5
m1 = 0.8013	835.512	1168.9
m1 = 0.8975	841.268	1171.5
m1 = 1.013	848.08	1174.4
m1 = 1.093	852.846	1176.6
m1 = 1.215	860.012	1179.5

CC(=O)N(C)C [N,N-dimethylethanamide]
[2], 323.15 K
Settings	mass density [kg/m3]	speed of sound [m/s]
–	913.129	1357.8

CO [methanol]
[2], 298.15 K
Settings	mass density [kg/m3]	speed of sound [m/s]
–	786.71	1108.5

CCO [ethanol]
[2], 298.15 K
Settings	mass density [kg/m3]	speed of sound [m/s]
–	785.125	1143.4

CC#N [acetonitrile]
[2], 298.15 K
Settings	mass density [kg/m3]	speed of sound [m/s]
–	776.6	1279.2
